{
  "source": "patent US8691772B2",
  "about": "“HSP60, HSP60 peptides and T cell vaccines for immunomodulation” (Yeda Research and Development Co. Ltd., priority 2005, dated 2014)",
  "key": {"ConA-induced hepatitis": {"test_system": "ConA-induced hepatitis", "test": "ConA-induced hepatitis (acute liver injury)", "type": "in vivo, BALB/c mice"}, "CD4^+CD25^+ T cells": {"test_system": "CD4^+CD25^+ T cells", "test": "Co-culture of treated CD4+CD25+ T cells with CD4+CD25- T cells", "type": "cell-based, human", "settings": "CD4+CD25+ treated with peptide 1 ng/ml, 2 hours; co-culture with untreated CD4+CD25-"}, "[1]": {"test_system": "Mouse splenic purified T cells", "test": "Anti-CD3-induced T-cell proliferation", "type": "cell-based, C57BL/6J mice", "settings": "for anti-CD3-induced T-cell proliferation: summary of Table 1", "source_text": "Purification of naïve T cells: Mouse spleen-cell suspensions were depleted of red blood cells by treatment with red blood lysis buffer (Sigma, St Louis, USA). T cells were then purified by negative selection with a T-cell isolation kit containing biotin-conjugated monoclonal antibodies to CD11b, CD45R, DX5 and Ter-119 (Miltenyi Biotec, Bergisch Gladbach, Germany). This procedure routinely yielded T cell preparations that were >95% positive for the CD3 marker as determined by FACS analysis.\nCells and medium: The T-cells cultures were set in RPMI-1640 supplemented with 5% FCS (Hyclon Logan, Utah) 100 U/ml penicillin, 100 μg/ml streptomycin, 50 μM 2β-ME, 12.5 mM hepes, 2 mM L-glutamine, 1 mM sodium pyruvate and non essential amino acids (biological industries 01-340-1 diluted 1:100).\nThe hamster anti-mouse anti-CD3 antibody was collected by TCA precipitation from 2C11 hybridoma supernatant. For the proliferation assay, non-tissue culture-treated polystyrene flat-bottom 96-well microtiter plates (Nunc 269787) were incubated overnight at 4° C. with 0.5-2 μg/ml anti-CD3 antibody.\n(§1) T-cell proliferation: Mouse splenic purified T cells (1×10^5) were pre-incubated with the p277 analogs p277(Val^6Val^11) (SEQ ID NO:2) or p277(Ser^6Ser^11) (SEQ ID NO:3) at the indicated concentrations for 30-60 min, and transferred to anti-CD3 coated wells in triplicate or quadruplicate in 200 μl culture medium. After 72 h of incubation (37° C., 5% CO2) the cells were pulsed with 1 μCi [^3H]-thymidine for 7 h, and [^3H] thymidine incorporation was measured using a 96-well plate beta-counter. The mean cpm±Standard Error were calculated for each triplicate or quadruplicate."}, "[2]": {"test_system": "Mouse splenic purified T cells", "test": "Anti-CD3-induced IFNγ secretion (ELISA)", "type": "cell-based, C57BL/6J mice", "settings": "for anti-CD3-induced IFNγ secretion: summary of Table 1", "experimental": "as §1\nInterferon-gamma (IFNγ) secretion to the culture media was determined by using an ELISA assay (OptiEIA kits, BD Pharmingen and Pierce Endogen) following the manufacturer's instructions. Standard curves were established using mouse recombinant cytokines. The assay detection limit was 16-32 pg/ml."}, "SOCS3": {"test_system": "SOCS3", "test": "SOCS3 expression in human T cells (immunoblot)", "type": "cell-based", "settings": "for effect of blocker on HSP60-induced SOCS3 activation: human T cells pre-treated with blocker"}, "HSP60": {"test_system": "HSP60", "test": "HSP60 expression in activated T cells by western blot", "type": "cell-based, Lewis rats", "settings": "LNC with Con A; A2b clone with peptide, 72 hr", "experimental": "Western blotting. Cell lysates of resting or activated T cells were prepared by treatment for 15 minutes in the following lysis buffer: NP40 1%, NaCl 0.9%, Tris 50 mM, EDTA 1 mM, PMSF 0.4 mM, pepstatin A 4 μg/ml, leupeptin 4 μg/ml and aprotinin 4 μg/ml. The lysates were centrifuged for 15 min at 14000 rpm and the protein concentration in the supernatant was determined using a BCA protein assay kit (Pierce, Rockford, Ill., USA). The lysates were subjected to PAGE-SDS using a mini-gel apparatus (Bio-Rad Laboratories, Hercules, Calif.); 100 μg of each sample were loaded per well. Two identical gels were run each time in parallel: one gel was stained with Coomassie Brilliant Blue R-250 according to the manufacturer's protocol (Bio-Rad) and the other was electro-transferred to nitrocellulose membranes (Schleicher and Schuell, Dassel, Germany).\nThe nitrocellulose membranes were washed with PBS and then blocked for 1 hr with 2% bovine serum albumin (Sigma), 2.5% milk powder (Bio-Rad), Tris (Sigma) pH 7.5 10 mM, NaCl 150 mM and 0.02% thimerosal (Sigma). […] Finally, the membranes were developed using the Western Blotting Luminol Reagent (Santa Cruz Biotechnology Inc., Santa Cruz, Calif., USA), exposed to X-ray film and quantified using the NIH Image 1.63 program (National Institutes of Health, USA). Size was determined using pre-stained broad-range protein standard markers (Bio-Rad)."}, "activated A2b T cells [3]": {"test_system": "activated A2b T cells", "test": "Anti-ergotypic T-cell proliferation assay", "type": "cell-based, Lewis rats", "settings": "rats vaccinated with peptide in IFA, 26 days after AA induction; compared to Mt3", "source_text": "(§2) T-cell lines and clones T-cell lines were raised and expanded using antigen presenting cells (APC) and antigens or peptides as described (Mor et al., 1992). Three Lewis rat T-cell lines were used in our experiments: Anti-HSP60, raised against recombinant human HSP60 (human HSP60 is 97% identical to rat HSP60 at the aa level); Anti-p277, raised against the p277 peptide of human HSP60 (96% identical its rat counterpart at the aa level) and Anti-MBP, raised against guinea pig MBP. For ergotypic stimulation, the A2b T-cell clone, specific for the 180-188 epitope of HSP65 (van Eden et al., 1988) was used; similar results were obtained when other rat T-cell clones were used as targets. A2b expresses MHC-I molecules constitutively and CD80, CD86 and MHC-II molecules upon activation, and can present peptide epitopes to T cells. Activated A2b cells were used on day 3 of their stimulation, and resting A2b cells were used on day 14-16 of their rest cycle, unless stated otherwise.\nDNA and peptide vaccination. The vectors containing the full-length cDNA of the human hsp60 gene (pHSP60) or the cDNA corresponding to aa 1-140 (pI) or aa 130-260 (pII) have been previously described (Quintana et al., 2002, Quintana et al., 2002b, Quintana et al., 2003, Quintana et al., 2000). […]\nAnti-ergotypic T-cell proliferation assay. […] The cultures were harvested and cpm were determined using a beta counter. […]"}, "AA": {"test_system": "AA", "settings": "DNA or peptide vaccination; Quintana et al., Ragno et al.; cited from earlier work"}, "activated A2b T cells [4]": {"test_system": "activated A2b T cells", "test": "Anti-ergotypic cytokine response (cytokine assays)", "type": "cell-based, Lewis rats", "settings": "rats vaccinated with peptide in IFA; response to activated A2b T cells", "source_text": "as §2\nCytokine assays. Supernatants were collected after 72 hr of stimulation with test antigens or stimulator cells. Pharmingen's OPTEIA IL-10, IL-4 and IFNγ kits (Pharmingen, San Diego, USA) and the TGFβ1 Emax® ImmunoAssay System (Promega, Madison, USA) were used to quantify cytokine release to culture supernatants, as previously described (Quintana et al., 2002b). […]"}, "diabetes": {"test_system": "diabetes", "settings": "single subcutaneous injection in mineral oil; cited from earlier work"}, "[5]": {"settings": "i.p. 330 μl, 500 ng/ml, 18 and 1 hr prior to ConA, 24 hr after ConA"}},
  "note": "Ends that are not written are not given here.",
  "data": [
    {"molecule": "VAGGGVTLLQAAPTLDELKLEG [MTp277, reference compound]", "values": [
      {"measurement": "serum level of IL-10", "setting": "ConA-induced hepatitis; 2 hr after ConA", "value": "did not seem to have a significant effect on the levels of cytokines"},
      {"measurement": "serum level of TNF-α", "setting": "ConA-induced hepatitis; 2 hr after ConA", "value": "did not seem to have a significant effect on the levels of cytokines"}
    ]},
    {"molecule": "VLGGGVALLRVIPALDSLTPANED [p277(Val^6Val^11)]", "values": [
      {"measurement": "IFN-γ and TNF-α secretion, and proliferation in co-culture", "setting": "CD4^+CD25^+ T cells", "value": "significantly inhibited IFN-γ and TNF-α secretion, and proliferation"},
      {"measurement": "serum level of IL-6", "setting": "ConA-induced hepatitis; 2 hr after ConA", "value": "increased the level of IL-6"},
      {"measurement": "serum level of IL-10", "setting": "ConA-induced hepatitis; 2 hr after ConA", "value": "significantly increased"},
      {"measurement": "serum level of TNF-α", "setting": "ConA-induced hepatitis; 2 hr after ConA", "value": "significantly decreased"},
      {"measurement": "serum ALT", "setting": "ConA-induced hepatitis; [5]", "value": "significantly inhibited ALT and AST secretion"},
      {"measurement": "serum AST", "setting": "ConA-induced hepatitis; [5]", "value": "significantly inhibited ALT and AST secretion"},
      {"measurement": "Percent Inhibition of proliferation", "setting": "[1]; peptide 0.1 ng/ml", "value": "50% ± 19%"},
      {"measurement": "Percent Inhibition of proliferation", "setting": "[1]; peptide 1 ng/ml", "value": "73% ± 7.5%"},
      {"measurement": "Percent Inhibition of proliferation", "setting": "[1]; peptide 10 ng/ml", "value": "69% ± 14%"},
      {"measurement": "anti-CD3-induced T-cell proliferation", "setting": "[1]", "value": "inhibited T-cell proliferation and IFNγ secretion"},
      {"measurement": "Percent Inhibition of IFNγ secretion", "setting": "[2]; peptide 0.1 ng/ml", "value": "94% ± 0.81%"},
      {"measurement": "Percent Inhibition of IFNγ secretion", "setting": "[2]; peptide 1 ng/ml", "value": "88.9% ± 3.4%"},
      {"measurement": "Percent Inhibition of IFNγ secretion", "setting": "[2]; peptide 10 ng/ml", "value": "86.7% ± 8.8%"},
      {"measurement": "anti-CD3-induced IFNγ secretion", "setting": "[2]", "value": "inhibited T-cell proliferation and IFNγ secretion"},
      {"measurement": "expression of activated SOCS3", "setting": "SOCS3", "value": "induced a marked expression of activated SOCS3 in T cells"}
    ]},
    {"molecule": "Concanavalin A [Con A]", "values": [
      {"measurement": "expression levels of HSP60 (western blot)", "setting": "HSP60", "value": "triggered a similar increase in the expression levels of HSP60"}
    ]},
    {"molecule": "EESNTFGLQLELTEG [Mt176-90]", "values": [
      {"measurement": "expression levels of HSP60 (western blot)", "setting": "HSP60", "value": "up-regulation of HSP60"}
    ]},
    {"molecule": "KFGADARALMLQGVDLLADA [Hu3]", "values": [
      {"measurement": "anti-ergotypic proliferative response of LNC", "setting": "activated A2b T cells [3]", "value": "significantly (p<0.05) more effective in inducing an anti-ergotypic proliferative response"},
      {"measurement": "inhibition of AA by vaccination", "setting": "AA", "value": "can also inhibit AA"},
      {"measurement": "anti-ergotypic cytokine secretion (IFNγ, TGFβ1, IL-10, IL-4)", "setting": "activated A2b T cells [4]", "value": "secreted IFNγ and TGFβ1, but not IL-10 or IL-4"}
    ]},
    {"molecule": "polymyxin B [PMB, reference compound]", "values": [
      {"measurement": "effect of blocker on LPS-induced SOCS3 activation", "setting": "SOCS3; LPS 100 ng/ml", "value": "inhibited by PMB"}
    ]},
    {"molecule": "N#C/C(=C/c1ccc(O)c(O)c1)C(=O)NCc1ccccc1", "note": "[AG490, reference compound]", "values": [
      {"measurement": "effect of blocker on HSP60-induced SOCS3 activation", "setting": "SOCS3", "value": "abrogated the effect of HSP60on SOCS3 expression"}
    ]},
    {"molecule": "VLGGGSALLRSIPALDSLTPANED [p277(Ser^6Ser^11)]", "values": [
      {"measurement": "incidence of diabetes", "setting": "diabetes", "value": "did not reduce the incidence of diabetes"},
      {"measurement": "anti-CD3-induced T-cell proliferation", "setting": "[1]", "value": "inhibited T-cell proliferation and IFNγ secretion"},
      {"measurement": "Percent Inhibition of IFNγ secretion", "setting": "[2]; peptide 0.1 ng/ml", "value": "86.6% ± 11.3%"},
      {"measurement": "Percent Inhibition of IFNγ secretion", "setting": "[2]; peptide 1 ng/ml", "value": "86.4% ± 1.3%"},
      {"measurement": "Percent Inhibition of IFNγ secretion", "setting": "[2]; peptide 10 ng/ml", "value": "82.6% ± 4.75%"},
      {"measurement": "anti-CD3-induced IFNγ secretion", "setting": "[2]", "value": "inhibited T-cell proliferation and IFNγ secretion"}
    ]},
    {"molecule": "pertussis toxin [reference compound]", "values": [
      {"measurement": "effect of blocker on HSP60-induced SOCS3 activation", "setting": "SOCS3", "value": "had no effect"}
    ]}
  ]
}
